Assay results as given in publication PMC6892585 (Bioorganic & medicinal chemistry, 2019).

Test system: Caco-2 cells

## Lucifer yellow [LY]
  permeability (Papp): ≤ 1 ×10⁻⁶ cm/s
